From patent publication US10266560B2, “Bile acid analogs as FXR/TGR5 agonists and methods of use thereof” (Enanta Pharmaceuticals, Inc., priority 2014, dated 2019)
Like-named read-outs stand apart in the source and are kept apart here.

Target: Human FXR (NR1H4) (Homo sapiens (Human), UniProt Q96RI1)
Test: Human FXR (NR1H4) Assay (Gal4 promoter driven luciferase reporter transactivation in CHO cells)
Type: cell-based

Human FXR (NR1H4), sequence (Q96RI1 whole entry, the tested form may be a part): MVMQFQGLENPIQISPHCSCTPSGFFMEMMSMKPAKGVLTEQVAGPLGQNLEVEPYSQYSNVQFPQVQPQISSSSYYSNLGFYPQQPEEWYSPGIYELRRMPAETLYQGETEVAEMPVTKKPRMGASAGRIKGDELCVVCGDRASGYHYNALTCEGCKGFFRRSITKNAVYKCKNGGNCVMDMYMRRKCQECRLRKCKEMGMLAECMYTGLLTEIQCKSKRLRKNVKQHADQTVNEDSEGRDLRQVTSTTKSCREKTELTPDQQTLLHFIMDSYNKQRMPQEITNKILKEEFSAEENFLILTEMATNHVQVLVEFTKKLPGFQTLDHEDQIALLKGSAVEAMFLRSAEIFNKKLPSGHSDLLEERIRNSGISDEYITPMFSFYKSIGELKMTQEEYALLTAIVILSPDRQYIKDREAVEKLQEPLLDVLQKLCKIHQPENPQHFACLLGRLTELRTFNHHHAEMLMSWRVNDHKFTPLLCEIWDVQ

| Compound | Emax (CHO; read-out: Efficacy (%)) [%] | EC50 (read-out: EC50) [µM] | Emax (CHO, read-out: Efficacy (%)) [%] | EC50 (FXR agonistic potency range; CHO reporter cells expressing human NR1H4, 22 hours incubation; read-out: EC50) [µM] |
| --- | --- | --- | --- | --- |
| CC[C@H]1[C@@H](O)[C@@H]2[C@H](CC[C@]3(C)[C@@H]([C@H](C)C[C@H](C)C(=O)NS(=O)(=O)c4ccc(C(C)(C)C)cc4)CC[C@@H]23)[C@@]2(C)CC[C@@H](O)C[C@@H]12 [Example 488] | 132 | 0.1 to 1 |  |  |
| CC[C@H]1[C@@H](O)[C@@H]2[C@H](CC[C@]3(C)[C@@H]([C@H](C)CCC(=O)N(C)S(=O)(=O)c4ccccc4)CC[C@@H]23)[C@@]2(C)CC[C@@H](O)C[C@@H]12 [Example 489] | 231 | 1 to 10 |  |  |
| CC[C@H]1[C@@H](O)[C@@H]2[C@H](CC[C@]3(C)[C@@H]([C@H](C)CCCC(=O)NS(=O)(=O)C4CC4)CC[C@@H]23)[C@@]2(C)CC[C@@H](O)C[C@@H]12 [Example 490] | 223 | 0.1 to 1 |  |  |
| CC[C@H]1[C@@H](O)[C@@H]2[C@H](CC[C@]3(C)[C@@H]([C@H](C)CCCC(=O)NS(=O)(=O)c4ccc(C(C)(C)C)cc4)CC[C@@H]23)[C@@]2(C)CC[C@@H](O)C[C@@H]12 [Example 491] |  |  | 182 | < 0.1 |
| CC[C@H]1[C@@H](O)[C@@H]2[C@H](CC[C@]3(C)[C@@H]([C@H](C)CCCC(=O)NS(=O)(=O)C4(C)CC4)CC[C@@H]23)[C@@]2(C)CC[C@@H](O)C[C@@H]12 [Example 492] | 226 | 0.1 to 1 |  |  |
